Assay results taken from ChEMBL document CHEMBL1141035, “Synthesis and antidepressant activity of some 1,3,5-triphenyl-2-pyrazolines and 3-(2''-hydroxy naphthalen-1''-yl)-1,5-diphenyl-2-pyrazolines” (2005).
“And” between values parts separate entries of the source, which are not always exact repeats. Equal entries are not always repeated.

How the values were obtained:
[1] = test system: Mus musculus; assay: Antidepressant activity determined by duration of immobility after intraperitoneal administration at 100 mg/kg in mice; type: functional
[2] = test system: Mus musculus; assay: Antidepressant activity determined by percentage change from control after intraperitoneal administration at 100 mg/kg in mice; n = 6; type: functional

| Compound | Activity [1] [s] | Activity [2] [%] | Activity ([1]; 100 mg/kg) |
| --- | --- | --- | --- |
| CN(C)c1ccc(C2CC(c3ccccc3)=NN2c2ccccc2)cc1 (stereo unspecified) | 22.95 | -59.25 |  |
| Oc1ccc2ccccc2c1C1=NN(c2ccccc2)C(c2ccccc2)C1 (stereo unspecified) | 50.33 | -10.63 |  |
| COc1cc(C2CC(c3c(O)ccc4ccccc34)=NN2c2ccccc2)cc(OC)c1OC (stereo unspecified) | 49.26 | -12.53 |  |
| Oc1ccc(C2=NN(c3ccccc3)C(c3cccc(Br)c3)C2)cc1 (stereo unspecified) | 32.46 | -42.18 |  |
| CN(C)c1ccc(C2CC(c3ccccc3O)=NN2c2ccccc2)cc1 (stereo unspecified) | 35.85 | -36.34 |  |
| Cc1ccc(C2=NN(c3ccccc3)C(c3ccc(N(C)C)cc3)C2)cc1 (stereo unspecified) | 50.15 | -10.95 |  |
| Oc1ccc2ccccc2c1C1=NN(c2ccccc2)C(c2ccc(Br)cc2)C1 (stereo unspecified) | 25.4 | -54.1 |  |
| Oc1ccc2ccccc2c1C1=NN(c2ccccc2)C(c2ccc(Cl)cc2)C1 (stereo unspecified) | 46.28 | -17.82 |  |
| COc1ccc(C2CC(c3c(O)ccc4ccccc34)=NN2c2ccccc2)cc1 (stereo unspecified) | 50.78 | -9.83 |  |
| CN(C)c1ccc(C2CC(c3ccc(Br)cc3)=NN2c2ccccc2)cc1 (stereo unspecified) | 41.88 | -25.63 |  |
| CN(C)CCCN1c2ccccc2CCc2ccc(Cl)cc21 [CLOMIPRAMINE] |  |  | 33.81 s and 18.68 s |
